We go through 6 molecules from patent US4229584A, “Ureylenebis(anionic substituted phenylene carbonyl)imino naphthalene sulfonic acids and naphthalene carboxylic acids and their salts” (American Cyanamid Company, priority 1978, dated 1980).

Structures can show the parent of a compound that is named as a salt. Where two headings read alike, the source gives them in different places.

One test concerns shunt pathway. The test is described as follows: Test, Code 036 (C-Shunt inhibitor): lysis of human erythrocytes in autologous serum via shunt pathway activated by cobra venom factor. Conditions: activity in wells, twofold serial dilution; higher well number indicates higher activity. Type of test: cell-based. An excerpt: (§1) An active inhibitor protects C2 from C1 and C4; (ii) Test, Code 035 (C3-C9 inhibitor)--This test determines the ability of the late components of human complement (C3-C9) to lyse EAC 142 in the presence of appropriate dilutions of the test compound. An active inhibitor protects EAC 142 from lysis by human C3-C9; (iii) Test, Code 036 (C-Shunt inhibitor)--In this test human erythrocytes rendered fragile are lysed in autologous serum via the shunt pathway activated by cobra venom factor in the presence of appropriate dilutions of the test compound. Inhibition of the shunt pathway results in failure of lysis; (iv) Forssman Vasculitis Test--Here, the well known complement dependent lesion, Forssman vasculitis, is produced in guinea pigs by intradermal injection of rabbit anti-Forssman antiserum. The lesion is measured in terms of diameter, edema and hemorrhage and the extent to which a combined index of these is inhibited by prior intraperitoneal injection of the test compound at 200 mg/kg is then reported, unless otherwise stated; (v) Forssman Shock Test--Lethal shock is produced in guinea pigs by an i.v. injection of anti-Forssman antiserum and the harmonic mean death time of treated guinea pigs is compared with that of simultaneous controls; (vi) Complement Level Reduction Test--In this test, the above dosed guinea pigs, or others, are bled for serum and the complement level is determined in undiluted serum by the capillary tube method of U.S. Pat. No. 3,876,376 and compared to undosed control guinea pigs; and (vii) Cap 50 Test--Here, appropriate amounts of the test compound are added to a pool of guinea pig serum in vitro, after which the undiluted serum capillary tube assay referred to above is run. The concentration of compound inhibiting 50% is reported.
(§2) **Activity in wells, a serial dilution assay. Higher well number indicate
(§3) higher activity. The serial dilutions are twofold.

In another test the target is T1, human C1 (Homo sapiens, UniProt P09871).
T1 construct: substrate fluid phase human C2, in presence of C4
T1 sequence (P09871 16-688): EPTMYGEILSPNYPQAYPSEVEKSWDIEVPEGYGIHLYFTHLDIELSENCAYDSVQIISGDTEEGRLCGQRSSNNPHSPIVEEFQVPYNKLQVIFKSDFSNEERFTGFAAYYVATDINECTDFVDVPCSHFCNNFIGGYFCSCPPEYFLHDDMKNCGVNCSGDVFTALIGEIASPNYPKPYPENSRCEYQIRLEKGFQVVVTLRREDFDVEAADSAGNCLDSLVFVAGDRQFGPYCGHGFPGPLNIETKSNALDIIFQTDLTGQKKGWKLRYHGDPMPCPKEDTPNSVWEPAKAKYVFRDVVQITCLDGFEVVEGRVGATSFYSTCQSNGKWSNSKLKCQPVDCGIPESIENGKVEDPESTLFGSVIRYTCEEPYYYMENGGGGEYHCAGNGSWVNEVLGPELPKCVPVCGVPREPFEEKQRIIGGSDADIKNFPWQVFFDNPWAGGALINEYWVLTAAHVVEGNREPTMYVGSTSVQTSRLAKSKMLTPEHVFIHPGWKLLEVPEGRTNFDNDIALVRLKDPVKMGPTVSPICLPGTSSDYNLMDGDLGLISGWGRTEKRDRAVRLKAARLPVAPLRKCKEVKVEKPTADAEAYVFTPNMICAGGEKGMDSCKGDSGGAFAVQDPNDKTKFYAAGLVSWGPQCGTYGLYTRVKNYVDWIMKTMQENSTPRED
T1 sequence (P00736 18-705 partner): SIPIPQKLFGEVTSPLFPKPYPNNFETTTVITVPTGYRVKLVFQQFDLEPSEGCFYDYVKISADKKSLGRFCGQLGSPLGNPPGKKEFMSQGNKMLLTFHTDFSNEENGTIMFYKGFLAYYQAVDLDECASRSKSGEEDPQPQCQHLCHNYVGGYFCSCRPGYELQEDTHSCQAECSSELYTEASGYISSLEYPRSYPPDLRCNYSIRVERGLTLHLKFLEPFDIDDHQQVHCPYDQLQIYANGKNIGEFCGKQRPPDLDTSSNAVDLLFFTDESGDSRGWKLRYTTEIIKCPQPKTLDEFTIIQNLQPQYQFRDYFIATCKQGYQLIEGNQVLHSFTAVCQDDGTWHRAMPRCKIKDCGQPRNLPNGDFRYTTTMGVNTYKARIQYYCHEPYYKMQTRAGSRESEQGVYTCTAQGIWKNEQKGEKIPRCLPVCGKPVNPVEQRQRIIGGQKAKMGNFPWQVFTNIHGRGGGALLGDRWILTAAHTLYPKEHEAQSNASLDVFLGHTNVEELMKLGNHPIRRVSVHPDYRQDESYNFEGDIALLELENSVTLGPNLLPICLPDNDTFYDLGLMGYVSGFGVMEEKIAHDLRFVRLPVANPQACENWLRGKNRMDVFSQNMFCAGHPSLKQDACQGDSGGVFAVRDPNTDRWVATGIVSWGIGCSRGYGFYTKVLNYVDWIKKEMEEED
T1 sequence (P02745 23-245 partner): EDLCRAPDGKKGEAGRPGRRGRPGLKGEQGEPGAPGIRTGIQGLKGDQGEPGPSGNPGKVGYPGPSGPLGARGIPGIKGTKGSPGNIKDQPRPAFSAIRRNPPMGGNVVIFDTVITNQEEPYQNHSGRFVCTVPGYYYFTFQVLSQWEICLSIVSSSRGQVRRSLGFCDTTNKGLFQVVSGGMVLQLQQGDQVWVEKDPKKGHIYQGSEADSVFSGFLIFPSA
T1 sequence (P02746 28-253 partner): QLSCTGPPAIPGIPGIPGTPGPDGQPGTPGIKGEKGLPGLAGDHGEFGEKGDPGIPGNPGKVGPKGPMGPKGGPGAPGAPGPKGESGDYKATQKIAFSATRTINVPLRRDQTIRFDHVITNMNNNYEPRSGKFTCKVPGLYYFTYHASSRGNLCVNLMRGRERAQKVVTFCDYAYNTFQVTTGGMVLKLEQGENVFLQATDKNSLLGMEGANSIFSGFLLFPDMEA
T1 sequence (P02747 29-245 partner): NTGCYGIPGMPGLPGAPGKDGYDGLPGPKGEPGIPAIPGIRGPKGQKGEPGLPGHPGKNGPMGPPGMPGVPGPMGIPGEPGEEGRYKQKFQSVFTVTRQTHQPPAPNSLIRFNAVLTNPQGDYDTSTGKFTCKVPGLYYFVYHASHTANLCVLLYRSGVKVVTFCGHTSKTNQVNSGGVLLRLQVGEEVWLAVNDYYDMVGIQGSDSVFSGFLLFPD
The test is described as follows: Test, Code 026 (C1 inhibitor): protection of fluid phase human C2 from activated human C1. The format is biochemical. The settings on record: activity in wells, twofold serial dilution; higher well number indicates higher activity.
Text: as §1, §2, §3

For a further test, the system named is whole complement. Briefly: In vivo complement inhibition in guinea pigs (whole complement of serum, capillary tube assay). Details: species or system guinea pig. The settings on record: for change in vivo at 200 mg/kg: Cavia porcellus, ip.
Text: as §1
With reference to Table I, guinea pigs weighing about 300 g were dosed intravenously (i.v.) or intraperitoneally (i.p.) with 200 mg/kg of the test compound dissolved in saline and adjusted to pH 7-8. […] The serum was tested for whole complement using the capillary tube assay. Percent inhibition was calculated by comparison with simultaneous controls. The results appear in Table I together with results of tests, Code 026, 035, 036, Cap 50, percent inhibition and Forssman shock.

Where [1] appears, read: 0.5 h, intraperitoneal, 200 mg/kg, 30 mins., read-out: In Vivo Activity (Guinea Pig) % Inhibition Intraperitoneal 30 mins.
Setting [2] is: 1 h, intraperitoneal, 200 mg/kg, 60 mins., read-out: In Vivo Activity (Guinea Pig) % Inhibition Intraperitoneal 60 mins.
Setting [3] is: 2 h, intraperitoneal, 200 mg/kg, 120 mins., read-out: In Vivo Activity (Guinea Pig) % Inhibition Intraperitoneal 120 mins.

On to `O=C(Nc1ccc(C(=O)Nc2cc(S(=O)(=O)[O-])cc3cc(S(=O)(=O)[O-])ccc23)c(S(=O)(=O)[O-])c1)Nc1ccc(C(=O)Nc2cc(S(=O)(=O)[O-])cc3cc(S(=O)(=O)[O-])ccc23)c(S(=O)(=O)[O-])c1.[Na+].[Na+].[Na+].[Na+].[Na+].[Na+]` [4,4'-{Ureylenebis[(2-sulfo-4,1-phenylenecarbonyl)imino]}-di-2,7-naphthalenedisulfonic acid hexasodium salt], for which the “Shunt Inhibition 036* Wells” value in the test with shunt pathway is “N”.

For the molecule `O=C(Nc1ccc(C(=O)Nc2cc(S(=O)(=O)[O-])cc3cc(S(=O)(=O)[O-])cc(S(=O)(=O)[O-])c23)cc1)Nc1ccc(C(=O)Nc2cc(S(=O)(=O)[O-])cc3cc(S(=O)(=O)[O-])cc(S(=O)(=O)[O-])c23)cc1.[Na+].[Na+].[Na+].[Na+].[Na+].[Na+]` [8,8'-[Ureylenebis(4,1-phenylenecarbonylimino)]di-1,3,6-naphthalenetrisulfonic acid hexasodium salt], on human C1, the “C1 026* Wells” value is “+4 Wells”. Further, the change in vivo at 200 mg/kg in the test with whole complement (0.5 h, read-out: In Vivo Activity (Guinea Pig) % Inhibition Intraperitoneal 30 mins.) was -18%; with whole complement (1 h, read-out: In Vivo Activity (Guinea Pig) % Inhibition Intraperitoneal 60 mins.), -21%; with whole complement (2 h, read-out: In Vivo Activity (Guinea Pig) % Inhibition Intraperitoneal 120 mins.), -33%. For the same molecule, the “In Vivo Activity (Guinea Pig) % Inhibition Intravenous 2 mins.” value in the test with whole complement (200 mg/kg) was -71%. The “In Vivo Activity (Guinea Pig) % Inhibition Intravenous 30 mins.” value in the test with whole complement (200 mg/kg, 30 mins.) is on record as -28%. Besides, in the test on whole complement (200 mg/kg, 120 mins.), the “In Vivo Activity (Guinea Pig) % Inhibition Intravenous 120 mins.” value was -16%.

`O=C(Nc1ccc(C(=O)Nc2cccc3cc(S(=O)(=O)O)cc(O)c23)c(S(=O)(=O)O)c1)Nc1ccc(C(=O)Nc2cccc3cc(S(=O)(=O)O)cc(O)c23)c(S(=O)(=O)O)c1` [5,5'-{Ureylenebis[(2-sulfo-4,1-phenylenecarbonyl)imino]}-bis[4-hydroxy-2-naphthalenesulfonic acid]tetrasodium salt]: on human C1, the “C1 026* Wells” value is reported as “+2 Wells”. Besides, the change in vivo at 200 mg/kg in the test with whole complement (setting [1]) is -26%; in the test on whole complement (setting [2]), 0%; with whole complement (setting [3]), -58%.

With `O=C(Nc1ccc(C(=O)Nc2cc(S(=O)(=O)O)cc3cc(S(=O)(=O)O)cc(O)c23)c(S(=O)(=O)O)c1)Nc1ccc(C(=O)Nc2cc(S(=O)(=O)O)cc3cc(S(=O)(=O)O)cc(O)c23)c(S(=O)(=O)O)c1` [4,4'-{Ureylenebis[(2-sulfo-4,1-phenylenecarbonyl)imino]}bis-[5-hydroxy-2,7-naphthalenedisulfonic acid]hexasodium salt], the figures for the change in vivo at 200 mg/kg in the test on whole complement (setting [1]), in the test with whole complement (setting [2]) and in the test on whole complement (setting [3]) were -35%, -41% and -74%, respectively. In the test with whole complement (200 mg/kg), the “In Vivo Activity (Guinea Pig) % Inhibition Intravenous 2 mins.” value was -98%. Further, the “In Vivo Activity (Guinea Pig) % Inhibition Intravenous 30 mins.” value with whole complement (200 mg/kg, 30 mins.) is listed as -81%. Also, in the test on whole complement (200 mg/kg, 120 mins.), the “In Vivo Activity (Guinea Pig) % Inhibition Intravenous 120 mins.” value is -63%.

For `O=C(Nc1ccc(C(=O)Nc2cc(S(=O)(=O)O)cc3cc(S(=O)(=O)O)cc(S(=O)(=O)O)c23)c(S(=O)(=O)O)c1)Nc1ccc(C(=O)Nc2cc(S(=O)(=O)O)cc3cc(S(=O)(=O)O)cc(S(=O)(=O)O)c23)c(S(=O)(=O)O)c1` [8,8'-{Ureylenebis{[(2-sulfo-4,1-phenylene)carbonyl]imino}}-1,3,6-naphthalenetrisulfonic acid octasodium salt], the change in vivo at 200 mg/kg is 4% in the test with whole complement (setting [1]), 17% in the test on whole complement (setting [2]) and -8% in the test with whole complement (setting [3]). Moreover, in the test on whole complement (200 mg/kg), the “In Vivo Activity (Guinea Pig) % Inhibition Intravenous 2 mins.” value is -85%. For the same molecule, the “In Vivo Activity (Guinea Pig) % Inhibition Intravenous 30 mins.” value with whole complement (200 mg/kg, 30 mins.) is recorded as -53%. In addition, in the test on whole complement (200 mg/kg, 120 mins.), the “In Vivo Activity (Guinea Pig) % Inhibition Intravenous 120 mins.” value was -24%.

Regarding `O=C(Nc1cc(C(=O)O)cc(C(=O)Nc2cc(S(=O)(=O)O)cc3cc(S(=O)(=O)O)cc(O)c23)c1)Nc1cc(C(=O)O)cc(C(=O)Nc2cc(S(=O)(=O)O)cc3cc(S(=O)(=O)O)cc(O)c23)c1` [3,3'-(Carbonyldiimino)bis[5-[(8-hydroxy-3,6-disulfo-1-naphthalenyl)aminocarbonyl]]benzoic acid tetrasodium salt], the “C1 026* Wells” value at human C1 is “+6 Wells”. In addition, the change in vivo at 200 mg/kg in the test with whole complement (setting [3]) was -69%.
